US9120762B2, “Salts of bicyclo-substituted pyrazolon azo derivatives, preparation method and use thereof” (Jiangsu Hengrui Medicine Co., Ltd., priority 2009, dated 2015)

Legend:
[1] = Pharmacokinetics assay in rats; assay type: in vivo, SD rats
Outline: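 SD rats, half male and half female, dosed intragastrically with compound suspended at 5 mg/mL (as free acid) in 1% sodium carboxymethyl cellulose; fed 2 h post-dose. Plasma concentrations over time were measured by HPLC-UV. Parameters came from a compartmental fit, with Cmax and tmax as observed values.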

[2] = Hygroscopicity assay, standing 48 hours at 25° C., humidity 79%; assay type: physicochemical; details: for Percentage of weight gain / hygroscopicity: 48 hours, 25° C., humidity 79%
Protocol: The hygroscopicity test of the compounds of the present disclosure after standing for 48 hours
1. The arid glass weighing bottle with a tap (external diameter is 50 mm, the height is 15 mm) was placed at 25° C.±1° C. suitably in a thermostatic drier (saturated ammonium sulfate solution was laid in the lower part, humidity was 79%) the day before the assay, precise weight was measured as (m1);
2. The above weighing bottle was covered with the compounds of the invention (about 1 g), and the thickness of the compounds were generally 1 mm, precise weight was measured as (m2);
3. The mouth of the weighing bottle was kept open and placed with the tap in the above conditions with constant temperature and humidity for 48 hours;
4. Put the tap back on the bottle, precise weight was measured as (m3)
The degree of hygroscopicity was defined as follows: […]
Deliquesce: turning into liquid by absorbing enough moisture.
High hygroscopicity: the percentage of hygroscopicity weight gain is not less than 15%.
Hygroscopicity: the percentage of hygroscopicity weight gain is less than 15%, but not less than 2%.
Sparing hygroscopicity: the percentage of hygroscopicity weight gain is less than 2%, but not less than 0.2%.
No hygroscopicity or almost no hygroscopicity: the percentage of hygroscopicity weight gain is less than 0.2%.

[3] = Pharmacokinetics assay in Beagle dogs; assay type: in vivo; details: for Vd/F / AUC / CL/F / half-life / MRT / Cmax / Tmax: male, beagle, dog, plasma, po; for Vd/F: read-out: Apparent Distribution Volume Vz/F; for AUC: read-out: Area Under Curve AUC; for CL/F: read-out: Clearance CL/F (converted); for half-life: read-out: Half-Life t1/2 (converted); for MRT: read-out: Mean Residence Time MRT; for Cmax: read-out: Plasma Conc. Cmax; for Tmax: read-out: Time to peak Tmax
Protocol: The pharmacokinetic behavior of the compounds of the present disclosure was studied and evaluated in Beagle dogs.
12 Healthy adult Beagles dogs, male, were purchased from Suzhou Xishan Drug Research and Development Colo., LTD. License number: SCXK (Suzhou) 2007-0005.
The test compound was diluted with 0.5% sodium carboxymethyl cellulose to 2.5 mg/mL (calculated as the free acid form) of suspension before use.
12 Healthy adult Beagles dogs, male, were divided into 4 groups. After an overnight fast, the dogs were administered intragastrically at a dose of 5.0 mg/kg (calculated as the free acid form), at a volume of 2 mL/kg.
Blood samples (1.2 mL) were taken from vein of forelegs at pre administration and at 0.25, 0.5, 1.0, 1.5, 2.0, 3.0, 5.0, 6.0, 8.0, 12.0, 14.0, 24.0 and 48.0 hours post administration, which were stored in heparinized tubes and centrifuged for 10 minutes at 3,500 rpm. The plasma samples were stored at −20° C. until analysis. The Beagles dogs were fed 2 hours after administration.
50 μL of Beagles dog plasma, obtained at various time points after administration, 20 μL of internal standard solution and 150 μL of methanol was added to result in protein precipitation. Then the mixture was mixed for 1 minute using a vortexer and centrifuged for 5 minutes at 11,000 rpm. 50 μL of the supernatant was analyzed by HPLC-UV.
The compartmental model of pharmacokinetics was fitted for the test compounds and the major pharmacokinetic parameters were calculated in which Cmax and tmax were the actually measured values.

[4] = 5 mg/kg, intragastric, 5 mg/kg (as free acid)
[5] = SD rats, intragastric, 50 mg/Kg (as free acid), 50 mg/kg
[6] = intragastric, 5 mg/kg (as free acid), 5 mg/kg

CC1=NN(c2ccc3c(c2)CCCC3)C(=O)/C1=N\Nc1cccc(-c2ccc(C(=O)O)o2)c1O.NCCO.NCCO [Example 7, (Z)-5-(2-hydroxy-3-{N′-[3-methyl-5-oxo-1-(5,6,7,8-tetrahydro-naphthalen-2-yl)-1,5-dihydro-pyrazol-4-ylidene]-hydrazino}-phenyl)-furan-2-carboxylic acid bis-(ethanolamine)]
Vd/F ([1]; both sexes, SD, rat, plasma, po, 50 mg/kg, SD rats, intragastric, 50 mg/Kg (as free acid), read-out: Apparent Distribution Volume Vz/F): 2.48 ± 0.92 L/kg | AUC ([1]; both sexes, SD, rat, plasma, po, 50 mg/kg, SD rats, intragastric, 50 mg/Kg (as free acid), read-out: Area Under Curve AUC): 469000 ± 274000 ng·h/mL | CL/F ([1]; both sexes, SD, rat, plasma, po, 50 mg/kg, SD rats, intragastric, 50 mg/Kg (as free acid), read-out: Clearance CL/F (converted)): 2.92 mL/min/kg | half-life ([1]; both sexes, SD, rat, plasma, po, 50 mg/kg, SD rats, intragastric, 50 mg/Kg (as free acid), read-out: Half-Life t½ (converted)): 13.9 ± 6.07 h | MRT ([1]; both sexes, SD, rat, plasma, po, 50 mg/kg, SD rats, intragastric, 50 mg/Kg (as free acid), read-out: Mean Residence Time MRT): 13.3 ± 5.12 h | Cmax ([1]; both sexes, SD, rat, plasma, po, 50 mg/kg, SD rats, intragastric, 50 mg/Kg (as free acid), read-out: Plasma Conc. Cmax): 74100 ± 34500 ng/mL | Tmax ([1]; both sexes, SD, rat, plasma, po, 50 mg/kg, SD rats, intragastric, 50 mg/Kg (as free acid), read-out: Time to peak Tmax): 1.75 ± 0.5 h | pharmacokinetics and bioavailability, in words ([1]; rats, comparing to the free acid): good pharmacokinetic characteristics | Percentage of weight gain [2]: 1.2% | hygroscopicity [2]: Sparing hygroscopicity (the percentage of hygroscopicity weight gain is less than 2%, but not less than 0.2%) | hygroscopicity, in words ([2]; comparing to the other salts): less hydroscopic | pharmacokinetics, in words ([3]; among the four salts): obviously superior in pharmacokinetics | Vd/F [3, 4]: 5.72 L/kg | AUC [3, 4]: 12200 ng·h/mL | CL/F [3, 4]: 8.3 mL/min/kg | half-life [3, 4]: 8.24 h | MRT [3, 4]: 13.3 h | Cmax [3, 4]: 985 ng/mL | Tmax [3, 4]: 1.2 h

CC1=NN(c2ccc3c(c2)CCCC3)C(=O)/C1=N\Nc1cccc(-c2ccc(C(=O)O)o2)c1O [Example 8, (Z)-5-(2-hydroxy-3-{N′-[3-methyl-5-oxo-1-(5,6,7,8-tetrahydro-naphthalen-2-yl)-1,5-dihydro-pyrazol-4-ylidene]-hydrazino}-phenyl)-furan-2-carboxylic acid bis-(choline)]
Area Under Curve AUC [1, 5]: 352000 ± 586000 ng·h/mL | Clearance CL/F [1, 5]: 15.4 ± 16.88 mL/min/kg | Half-Life t½ [1, 5]: 10.6 ± 9.02 h | Plasma Conc. Cmax [1, 5]: 36200 ± 46200 ng/mL | Time to peak Tmax [1, 5]: 1.38 ± 1.11 h | Percentage of weight gain [2]: 13.9% | hygroscopicity [2]: Hygroscopicity (the percentage of hygroscopicity weight gain is less than 15%, but not less than 2%) | Area Under Curve AUC [3, 6]: 7910 ng·h/mL | Clearance CL/F [3, 6]: 14.6 mL/min/kg | Half-Life t1/2 [3, 6]: 7.67 h | Plasma Conc. Cmax [3, 6]: 600 ng/mL | Time to peak Tmax [3, 6]: 0.5 h

CC1=NN(c2ccc3c(c2)CCCC3)C(=O)/C1=N\Nc1cccc(-c2ccc(C(=O)O)o2)c1O [Example 12, (Z)-5-(2-hydroxy-3-{N′-[3-methyl-5-oxo-1-(5,6,7,8-tetrahydro-naphthalen-2-yl)-1,5-dihydro-pyrazol-4-ylidene]-hydrazino}-phenyl)-furan-2-carboxylic acid bis-(trometamol)]
Area Under Curve AUC [1, 5]: 58500 ± 23800 ng·h/mL | Clearance CL/F [1, 5]: 16.7 ± 8.4 mL/min/kg | Half-Life t½ [1, 5]: 5.1 ± 2.41 h | Plasma Conc. Cmax [1, 5]: 17800 ± 10300 ng/mL | Time to peak Tmax [1, 5]: 1.38 ± 1.11 h | Percentage of weight gain [2]: 2.71% | hygroscopicity [2]: Hygroscopicity (the percentage of hygroscopicity weight gain is less than 15%, but not less than 2%) | Vd/F [3, 4]: 4.86 L/kg | AUC [3, 4]: 11000 ng·h/mL | CL/F [3, 4]: 11 mL/min/kg | half-life [3, 4]: 6.86 h | MRT [3, 4]: 11.6 h | Cmax [3, 4]: 811 ng/mL | Tmax [3, 4]: 0.5 h
